Source: patent US8445440B2, “Dimeric IAP inhibitors” (Novartis AG, priority 2010, dated 2013)

Assays:
[1] = test system: SKOV3 or Panc3.27 tumor cells; test: In vitro combination study, fixed concentration of IAP inhibitor with varied combination agent; assay type: cell-based; settings: each agent alone
Procedure: (§1) On day one adherent SKOV3 and Panc3.27 cells are plated into two 96-well, clear, flat bottom plates. All wells in row A contain 90 uL of media. All wells in rows B-G contain a total volume of 90 uL per well and 2000 cells per well for SKOV3 and 4000 cells per well for Panc3.27 cell lines. Plates are then incubated overnight for 18 hours at 37° C., 5% CO2.
On day two cells are treated with the compounds of formula M-L-M′. Treatments are done in triplicate. The compounds are first serially diluted in DMSO and then added to media giving a final concentration of 0.2% DMSO when added to cells. […]
To measure cell viability 50 uL of Cell Titer Glo (CTG) solution is added to row A, media only and B, cells and media. […] After incubating for ten minutes with CTG plates are measured on a luminescent reader at 700 nm wavelength. Read time is approximately one second per well for a 96-well plate.
On day five 50 uL of CTG is added to plate one, rows A-G, incubated for 10 minutes at room temperature and read on a luminescent reader. […] Triplicate values are averaged and percent control growth is calculated. Percent control growth is calculated using the following logical test: If well read data point (a) is greater than time zero data point (t=0), then 100*[(a)−(t=0)]/[(72 hour total growth)−(t=0)], OR 100*[(a)−(t=0)]/[(t=0)]. […]

XIAP-BIR3 = XIAP-BIR3 (Homo sapiens, UniProt P98170); test: Biacore SPR solution competition binding assay vs smac7 mer peptide, XIAP-BIR3; settings: citrate salt form tested; 100 nM XIAP-BIR3; 25° C.; read-out: XIAP-BIR3 Binding Biacore (Competitive) EC50
Excerpt: (§2) The compounds described herein above were profiled using a cellular assay (using SKOV3 or Panc3.27 tumor cells) and a binding assay to determine the competition between the compounds of the present invention and smac7 mer peptide for XIAP-BIR3 and cIAP1-BIR3 binding groove occupancy.
(§3) The present method includes utility of a Surface plasmon resonance (SPR)-based biosensor (Biacore™ GE Healthcare, Uppsala, Sweden) to examine competition between the compounds of the present invention and smac7 mer peptide for XIAP-BIR3 and cIAP1-BIR3 binding groove occupancy.
(§4) Biacore™ utilizes the phenomenon of surface plasmon resonance (SPR) to detect and measure binding interactions. In a typical Biacore experiment, one of the interacting molecules is immobilized on a flexible dextran matrix while the interacting partner is flowed over the derivatized surface. A binding interaction results in an increase in mass on the sensor surface and a corresponding direct change in the refractive index of the medium in the vicinity of the sensor surface. Changes in refractive index or signal are recorded in resonance units (R.U.) Signal changes due to association and dissociation of complexes are monitored in a non-invasive manner, continuously and in real-time, the results of which are reported in the form of a sensorgram.
(§5) Biacore™ T100 (GE Healthcare, Uppsala, Sweden) was used to conduct all experiments reported herein. Sensor surface preparation and interaction analyses were performed at 25° C. Buffer and Biacore reagents were purchased from GE Healthcare. Running buffer containing 10 mM Hepes, pH7.4, 150 mM sodium chloride, 1.25 mM Dithiothreitol, 2% Dimethyl sulfoxide and 0.05% polysorbate 20 was utilized throughout all experiments.
(§6) Biotinylated smac7 mer peptide was diluted to 10 nM in running buffer and captured onto a sensor surface pre-derivatized with streptavidin (sensor chip SA) towards peptide surface densities in the range 40-100 R.U. Peptide captured surfaces were blocked with 500 μM PEO2-Biotin (Thermo Scientific).
(§7) Interaction analyses were performed by first equilibrating each compound within a six point seven fold compound dilution series in the range 1 μM to 0.06 nM with either 100 nM XIAP-BIR3 or 6 nM cIAP1-BIR3 for at least one hour during instrument start-up procedures. Protein compound mixtures were then injected over reference and smac7 mer peptide surfaces in series for 60 seconds at a flow-rate of 64 μL/minutes. Surface regeneration was performed at the end of each analysis cycle by a 30 second injection of 10 mM Glycine, pH 2.5, 1M Sodium Chloride, 0.05% polysorbate 20. Additionally, control compound samples and control XIAP-BIR3 or cIAP1-BIR3 samples were prepared and run at regular intervals to monitor surface and assay performance.
(§8) Data analyses were carried out using Biacore™ T100 evaluation software v2.0 to validate assay quality. Binding level report points were plotted versus logarithmic compound concentration values and analyzed in Graphpad prism 5 via non-linear regression using a one-site competition model. EC50 values were generated and used as a measure of inhibitor potency.

cIAP1-BIR3 = cIAP1-BIR3 (Homo sapiens, UniProt Q13490); test: Biacore SPR solution competition binding assay vs smac7 mer peptide, cIAP1-BIR3; settings: citrate salt form tested; 6 nM cIAP1-BIR3; 25° C.; read-out: CIAP-BIR3 Binding Biacore (Competitive) EC50
Excerpt: as §2, §3, §4, §5, §6, §7, §8

Panc3.27 tumor cells = test: Cellular assay, Panc3.27 tumor cell proliferation (Cell Titer Glo); assay type: cell-based; settings: citrate salt form tested, Panc3.27 cells, 72 hour growth, read-out: PANC proliferation IC50
Procedure: as §2, §1
(§9) On day two cells are treated with the compounds of formula M-L-M′. Treatments are done in triplicate. The compounds are first serially diluted in DMSO and then added to media giving a final concentration of 0.2% DMSO when added to cells. Cells are treated with 10 uL of serially diluted compounds of formula M-L-M′ at a final concentration of 1000 nM, 200 nM, 40 nM, 8 nM, 1.6 nM, 0.32 nM, 0.06 nM, 0.013 nM, 0.0026 nM, and one untreated well. Plate two is used as a time zero plate.
(§10) To measure cell viability 50 uL of Cell Titer Glo (CTG) solution is added to row A, media only and B, cells and media. CTG is purchased from Promega Corporation catalog number G7573. The solution is prepared according to manufacturer's instructions. CTG measures the amount of ATP released from viable cells that is proportional to the number of cells in each well. After incubating for ten minutes with CTG plates are measured on a luminescent reader at 700 nm wavelength. Read time is approximately one second per well for a 96-well plate.
(§11) On day five 50 uL of CTG is added to plate one, rows A-G, incubated for 10 minutes at room temperature and read on a luminescent reader. Raw data is adjusted to account for the time zero plate as well as background noise. Triplicate values are averaged and percent control growth is calculated. Percent control growth is calculated using the following logical test: If well read data point (a) is greater than time zero data point (t=0), then 100*[(a)−(t=0)]/[(72 hour total growth)−(t=0)], OR 100*[(a)−(t=0)]/[(t=0)]. Data is represented by line graph with the concentration of compound on the x axis and percent control growth on the y axis.

SKOV3 tumor cells = test: Cellular assay, SKOV3 tumor cell proliferation (Cell Titer Glo); assay type: cell-based; settings: Homo sapiens, SK-OV-3, citrate salt form tested, 72 hour growth
Procedure: as §2, §1, §9, §10, §11

Chain of cIAP1-BIR3 (Q13490 260-352 limits assumed): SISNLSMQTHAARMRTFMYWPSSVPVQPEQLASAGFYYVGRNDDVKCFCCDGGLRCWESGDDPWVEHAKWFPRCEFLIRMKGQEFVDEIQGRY
Chain of XIAP-BIR3 (P98170 241-356 limits assumed): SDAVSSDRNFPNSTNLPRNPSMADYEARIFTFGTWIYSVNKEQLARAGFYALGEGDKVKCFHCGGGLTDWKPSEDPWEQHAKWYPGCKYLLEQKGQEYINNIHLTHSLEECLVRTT

EC50 (XIAP-BIR3)	EC50 (cIAP1-BIR3)	IC50 (Panc3.27 tumor cells)	IC50 (SKOV3 tumor cells)	SMILES	single agent activity in the in vitro combination study [1]
				CC(=O)O[C@H]1C(=O)[C@@]2(C)[C@H]([C@H](OC(=O)c3ccccc3)[C@]3(O)C[C@H](OC(=O)[C@H](O)[C@@H](NC(=O)c4ccccc4)c4ccccc4)C(C)=C1C3(C)C)[C@]1(OC(C)=O)CO[C@@H]1C[C@@H]2O [Paclitaxel, paclitaxel, reference compound]	neither Example 1J nor paclitaxel alone showed significant activity
636 to 704 nM	18.4 to 19.4 nM	> 10000 nM	9420 to 9460 nM	O=C(NCCCC[C@H](NC(=O)[C@@H]1CCN1)C(=O)N1CCC[C@H]1c1cncc(C(=O)c2ccc(F)cc2)c1)c1ccc(-c2ccc(C(=O)NCCCC[C@H](NC(=O)[C@@H]3CCN3)C(=O)N3CCC[C@H]3c3cncc(C(=O)c4ccc(F)cc4)c3)cc2)cc1 [Example 1K, Biphenyl-4,4′-dicarboxylic acid bis-[((S)-5-[((S)-azetidine-2-carbonyl)-amino]-6-{(S)-2-[5-(4-fluoro-benzoyl)-pyridin-3-yl]-pyrrolidin-1-yl}-6-oxo-hexyl)-amide]]	
131 to 194 nM	0.37 to 0.41 nM	11.7 to 25.9 nM	7.39 to 15.4 nM	CN[C@@H](C)C(=O)N[C@@H](Cc1ccc(NC(=O)CCCCCCCCC(=O)Nc2ccc(C[C@H](NC(=O)[C@H](C)NC)C(=O)N3CCC[C@H]3c3cncc(C(=O)c4ccc(F)cc4)c3)cc2)cc1)C(=O)N1CCC[C@H]1c1cncc(C(=O)c2ccc(F)cc2)c1 [Example 2B, Decanedioic acid bis-({4-[(S)-3-{(S)-2-[5-(4-fluoro-benzoyl)-pyridinyl-3-yl]-pyrrolidin-1-yl}-2-((S)-2-methylamino-propionylamino)-3-oxo-propyl]-phenyl}-amide)]	
60.4 to 162 nM	0.58 to 3.12 nM	0.0026 to 6.67 nM	0.026 to 5.94 nM	CN[C@@H](C)C(=O)N[C@@H](CCCCNC(=O)c1ccc(-c2ccc(C(=O)NCCCC[C@H](NC(=O)[C@H](C)NC)C(=O)N3CCC[C@H]3c3cncc(C(=O)c4ccc(F)cc4)c3)cc2)cc1)C(=O)N1CCC[C@H]1c1cncc(C(=O)c2ccc(F)cc2)c1 [Example 1J, Biphenyl-4,4′-dicarboxylic acid bis-{[(S)-6-{(S)-2-[5-(4-fluorobenzoyl)-pyridin-3-yl]-pyrrolidin-1-yl}-5-((S)-2-methylamino-propionylamino)-6-oxo-hexyl]-amide}]	neither Example 1J nor paclitaxel alone showed significant activity
413 to 425 nM	4.75 to 4.89 nM	63.3 to 147 nM	84 to 127 nM	CN[C@@H](C)C(=O)N[C@@H](CCCCNC(=O)c1ccc(C(=O)NCCCC[C@H](NC(=O)[C@H](C)NC)C(=O)N2CCC[C@H]2c2cncc(C(=O)c3ccc(F)cc3)c2)cc1)C(=O)N1CCC[C@H]1c1cncc(C(=O)c2ccc(F)cc2)c1 [Example 1C, N,N′-Bis-[(S)-6-{(S)-2-[5-(4-fluorobenzoyl)-pyridin-3-yl]-pyrrolidin-1-yl}-5-((S)-2-methylamino-propionylamino)-6-oxo-hexyl]-terephthalamide]	

SMILES	EC50 (XIAP-BIR3)	EC50 (cIAP1-BIR3)	IC50 (Panc3.27 tumor cells)	IC50 (SKOV3 tumor cells)	single agent activity in the in vitro combination study [1]
CN[C@@H](C)C(=O)N[C@@H](CCCCNS(=O)(=O)c1ccc2ccc(S(=O)(=O)NCCCC[C@H](NC(=O)[C@H](C)NC)C(=O)N3CCC[C@H]3c3cncc(C(=O)c4ccc(F)cc4)c3)cc2c1)C(=O)N1CCC[C@H]1c1cncc(C(=O)c2ccc(F)cc2)c1 [Example 1H, (S)-N-((S)-1-((S)-2-(5-(4-fluorobenzoyl)pyridin-3-yl)pyrrolidin-1-yl)-6-(7-(N-((S)-6-((S)-2-(5-(4-fluorobenzoyl)pyridin-3-yl)pyrrolidin-1-yl)-5-((S)-2-(methylamino)propanamido)-6-oxohexyl)sulfamoyl)naphthalene-2-sulfonamido)-1-oxohexan-2-yl)-2-(methylamino)propanamide]	46.3 to 53.5 nM	0.88 nM	13.3 to 140 nM	80.8 to 86.4 nM	
